From patent US12692261B2, “Substituted heterocyclic compounds and therapeutic uses thereof” (Bayer Aktiengesellschaft, priority 2020, dated 2026) come the findings set out here.

Read-outs that look alike come from different tables or passages of the source.

For assay [1], the target named is T1, full-length human CSNK1A1 (Homo sapiens, UniProt P48729).
T1 construct: N-terminal Glutathion-S-Transferase (GST) and full-length human CSNK1A1; purchased Life Technologies PV4174; host or cells: baculovirus infected insect cells
The assay can be described thus: CSNK1A1 Assay 2 (ADP-Glo, 1 μM ATP, substrate biotin-Ahx-KRRRAL-pS-VASLPGL). In kind it is biochemical. Conditions: Table 3, read-out: CSNK1A1 Assay 2 IC50 [mol/l] (median). The method in brief:
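GST-tagged full-length human CSNK1A1 from baculovirus-infected insect cells (about 0.0375 ng/μL), preincubated 15 min at 22 °C with compound in HEPES pH 7.5 buffer, with 1 μM ATP and biotin-Ahx-KRRRAL-pS-VASLPGL substrate. ADP formed read by ADP-Glo luminescence.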

Assay [2] deals with T2, wild-type Epidermal Growth Factor Receptor (EGFR) (Homo sapiens, UniProt P00533).
T2 construct: a fragment of human EGFR (amino acids R669 to A1210); made in house; host or cells: Sf9 insect cells
The assay can be described thus: WT-EGFR Kinase Assay (TR-FRET, 2 mM ATP). In kind it is biochemical. From the text: Inhibitory activity of compounds of the present invention against wild-type Epidermal Growth Factor Receptor (EGFR) was quantified employing the TR-FRET based EGFR assay as described in the following paragraphs.
Recombinant fusion protein of N-terminal Glutathion-S-Transferase (GST) and a fragment of human EGFR (amino acids R669 to A1210), expressed in Sf9 insect cells and purified via affinity chromatography using Glutathion Sepharose as described above, was used as kinase. As substrate for the kinase reaction the biotinylated peptide biotin-Ahx-[…] (C-terminus in amide form) was used which can be purchased e.g. form the company Biosynthan GmbH (Berlin-Buch, Germany).
For the assay 50 nl of a 100 fold concentrated solution of the test compound in DMSO was pipetted into either a black low volume 384 well microtiter plate or a black 1536 well microtiter plate (both Greiner Bio-One, Frickenhausen, Germany), 2 μL of a solution of EGFR in aqueous assay buffer [50 mM Hepes pH 7.0, 10 mM MgCl2, 1 mM dithiothreitol, 0.5 mM EGTA, 0.3 mM activated sodium ortho-vanadate, 0.005% (w/v) bovine serum albumin, 0.005% (v/v) Tween-20] were added and the mixture was incubated for 15 min at 22° C. to allow pre-binding of the test compounds to the enzyme before the start of the kinase reaction. […] The concentration of EGFR was adjusted depending of the activity of the enzyme lot and was chosen appropriate to have the assay in the linear range, typical concentration was 7.6 pg/μL. The reaction was stopped by the addition of 3 μL of a solution of HTRF detection reagents (83.3 nM streptavidine-XL665 [Cisbio Bioassays, Codolet, France] and 1.67 nM PT66-Tb-Cryptate, a terbium-cryptate labelled anti-phospho-tyrosine antibody from Cisbio Bioassays [instead of the PT66-Tb-cryptate PT66-Eu-Chelate from Perkin Elmer can also be used]) in an aqueous EDTA-solution (133.3 mM EDTA, 0.2% (w/v) bovine serum albumin in 50 mM HEPES pH 7.5).
The resulting mixture was incubated 1 h at 22° C. to allow the binding of the biotinylated phosphorylated peptide to the streptavidine-XL665 and the PT66-Tb-Cryptate. Subsequently the amount of phosphorylated substrate was evaluated by measurement of the resonance energy transfer from the PT66-Tb-Cryptate to the streptavidine-XL665. Therefore, the fluorescence emissions at 620 nm and 665 nm after excitation at 337 nm were measured in a HTRF reader, e.g. a Pherastar (BMG Labtechnologies, Offenburg, Germany) or a Viewlux (Perkin-Elmer). The ratio of the emissions at 665 nm and at 622 nm was taken as the measure for the amount of phosphorylated substrate.

The mark [3] stands for this setting: EGFR Wildtyp 2 mM ATP IC50 [mol/l] (median), Table 4.
The mark [4] stands for this setting: read-out: EGFR Wildtyp 2 mM ATP IC50 [mol/l] (median), Table 4.

T2 sequence (P00533 669-1210): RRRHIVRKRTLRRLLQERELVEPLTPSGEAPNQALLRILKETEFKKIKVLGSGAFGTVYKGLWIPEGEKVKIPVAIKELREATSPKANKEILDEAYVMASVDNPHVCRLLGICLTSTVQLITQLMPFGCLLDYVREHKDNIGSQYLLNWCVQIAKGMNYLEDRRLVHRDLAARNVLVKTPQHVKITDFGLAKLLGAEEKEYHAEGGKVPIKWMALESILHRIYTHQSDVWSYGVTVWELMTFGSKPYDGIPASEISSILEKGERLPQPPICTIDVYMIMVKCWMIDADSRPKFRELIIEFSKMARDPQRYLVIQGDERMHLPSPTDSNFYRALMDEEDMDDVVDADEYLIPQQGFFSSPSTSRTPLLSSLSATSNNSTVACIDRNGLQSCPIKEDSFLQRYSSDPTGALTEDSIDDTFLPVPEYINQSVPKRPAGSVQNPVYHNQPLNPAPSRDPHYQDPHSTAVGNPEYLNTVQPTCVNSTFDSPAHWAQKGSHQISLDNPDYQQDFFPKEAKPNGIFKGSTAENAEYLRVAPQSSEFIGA
T1 sequence (P48729 whole entry): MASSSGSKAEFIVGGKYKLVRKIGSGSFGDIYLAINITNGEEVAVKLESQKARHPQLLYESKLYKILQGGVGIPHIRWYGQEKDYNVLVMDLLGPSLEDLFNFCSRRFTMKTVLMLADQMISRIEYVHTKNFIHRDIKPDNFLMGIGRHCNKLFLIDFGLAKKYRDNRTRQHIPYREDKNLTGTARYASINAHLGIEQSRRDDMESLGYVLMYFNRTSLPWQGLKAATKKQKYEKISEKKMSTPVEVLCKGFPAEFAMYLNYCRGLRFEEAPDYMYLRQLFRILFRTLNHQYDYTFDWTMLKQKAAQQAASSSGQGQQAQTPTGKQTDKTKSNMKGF

Take `O=C(Nc1cc(-c2[nH]c3cc(F)cnc3c2-c2ccccn2)ccn1)C(CC(F)F)c1ccc(F)cc1` (racemic) [Example 16, 4,4-difluoro-2-(4-fluorophenyl)-N-{4-[6-fluoro-3-(pyridin-2-yl)-1H-pyrrolo[3,2-b]pyridin-2-yl]pyridin-2-yl}butanamide]: the values for the IC50 in assay [1] and in assay [2] (setting [3]) were 3.39 nM and greater than 20000 nM, respectively.

As for `O=C(Nc1cc(-c2[nH]c3c(OCC(F)(F)F)ncnc3c2-c2ccccn2)ccn1)C(CC(F)(F)F)c1ccc(F)cc1` (racemic) [Example 125, (2RS)-4,4,4-trifluoro-2-(4-fluorophenyl)-N-{4-[7-(pyridin-2-yl)-4-(2,2,2-trifluoroethoxy)-5H-pyrrolo[3,2-d]pyrimidin-6-yl]pyridin-2-yl}butanamide], the IC50 in assay [1] is 14.8 nM; in assay [2] (setting [3]) it was greater than 20000 nM.

`O=C(Nc1cc(-c2[nH]c3ccc(F)nc3c2-c2cc(F)ccn2)ccn1)C(CC(F)F)c1ccc(F)cc1` (single isomer, unassigned) [Example 96, (2R or S)-4,4-difluoro-N-{4-[5-fluoro-3-(4-fluoropyridin-2-yl)-1H-pyrrolo[3,2-b]pyridin-2-yl]pyridin-2-yl}-2-(4-fluorophenyl)butanamide]: the IC50 in assay [1] is 4.67 nM; in assay [2] (setting [3]) it was greater than 20000 nM.

Turning to `O=C(Nc1cc(-c2[nH]c3c(OCC(F)F)cc(F)nc3c2-c2ccccn2)ccn1)C(CC(F)F)c1ccc(F)cc1` (single isomer, unassigned) [Example 30, (2R or S)—N-{4-[7-(2,2-difluoroethoxy)-5-fluoro-3-(pyridin-2-yl)-1H-pyrrolo[3,2-b]pyridin-2-yl]pyridin-2-yl}-4,4-difluoro-2-(4-fluorophenyl)butanamide], the IC50 in assay [1] was 8.84 nM; in assay [2] (setting [4]), greater than 20000 nM.

In the case of `O=C(Nc1cc(-c2[nH]c3cccnc3c2-c2ccccc2)ccn1)C(CC(F)F)c1ccc(F)cc1` (racemic) [Example 22, 4,4-difluoro-2-(4-fluorophenyl)-N-[4-(3-phenyl-1H-pyrrolo[3,2-b]pyridin-2-yl)pyridin-2-yl]butanamide], the IC50 in assay [1] is 2.37 nM; in assay [2] (setting [3]) it was greater than 20000 nM.

In the case of `O=C(Nc1cc(-c2[nH]c3c(C4CCCO4)cc(F)nc3c2-c2ccccn2)ccn1)C(CC(F)F)c1ccc(F)cc1` (single isomer, unassigned) [Example 117, (2R or S)-4,4-difluoro-N-(4-{5-fluoro-7-[(2R or S)-oxolan-2-yl]-3-(pyridin-2-yl)-1H-pyrrolo[3,2-b]pyridin-2-yl}pyridin-2-yl)-2-(4-fluorophenyl)butanamide], the IC50 in assay [1] was 9.89 nM; in assay [2] (setting [3]), greater than 20000 nM.

Consider `O=C(Nc1cc(-c2[nH]c3cncnc3c2-c2ccccn2)ccn1)C(CC(F)F)c1ccc(F)cc1` (single isomer, unassigned; (+)) [Example 15, (+)-4,4-difluoro-2-(4-fluorophenyl)-N-{4-[7-(pyridin-2-yl)-5H-pyrrolo[3,2-d]pyrimidin-6-yl]pyridin-2-yl}butanamide], for which the IC50 in assay [1] was 1.32 nM; in assay [2] (setting [4]), greater than 20000 nM.

Regarding `O=C(Nc1cc(-c2[nH]c3c(OCC(F)(F)F)ncnc3c2-c2ccccn2)ccn1)C(CC(F)(F)F)c1ccc(F)cc1` (single isomer, unassigned) [Example 126, (2R or S)-4,4,4-trifluoro-2-(4-fluorophenyl)-N-{4-[7-(pyridin-2-yl)-4-(2,2,2-trifluoroethoxy)-5H-pyrrolo[3,2-d]pyrimidin-6-yl]pyridin-2-yl}butanamide], the IC50 in assay [1] is 5.94 nM; in assay [2] (setting [3]), greater than 20000 nM.

Regarding `O=C(Nc1cc(-c2[nH]c3nc(OC(F)F)cnc3c2-c2ccccn2)ccn1)C(CC(F)F)c1ccc(F)cc1` (stereo not drawn) [Example 105, N-{4-[3-(difluoromethoxy)-7-(pyridin-2-yl)-5H-pyrrolo[2,3-b]pyrazin-6-yl]pyridin-2-yl}-4,4-difluoro-2-(4-fluorophenyl)butanamide], the IC50 in assay [1] is 10.9 nM; in assay [2] (setting [3]), greater than 20000 nM.

On to `Cc1cc(F)nc2c(-c3ccccn3)c(-c3ccnc(NC(=O)C(CC(F)F)c4ccc(F)cc4)c3)[nH]c12` (single isomer, unassigned; (-)) [Example 38, (−)-4,4-difluoro-N-{4-[5-fluoro-7-methyl-3-(pyridin-2-yl)-1H-pyrrolo[3,2-b]pyridin-2-yl]pyridin-2-yl}-2-(4-fluorophenyl)butanamide], for which the values for the IC50 in assay [1] and in assay [2] (setting [3]) were 2.26 nM and greater than 20000 nM, respectively.

For `Cc1cc(F)nc2c(-c3ccccn3)c(-c3ccnc(NC(=O)C(CC(F)F)c4ccc(F)cc4)c3)[nH]c12` (racemic) [Example 36, (rac)-4,4-difluoro-N-{4-[5-fluoro-7-methyl-3-(pyridin-2-yl)-1H-pyrrolo[3,2-b]pyridin-2-yl]pyridin-2-yl}-2-(4-fluorophenyl)butanamide], the IC50 was 21.4 nM in assay [1] and greater than 20000 nM in assay [2] (setting [3]).

On to `O=C(Nc1cc(-c2[nH]c3cncnc3c2-c2ccccn2)ccn1)C(CC(F)F)c1ccc(F)cc1` (racemic) [Example 13, 4,4-difluoro-2-(4-fluorophenyl)-N-{4-[7-(pyridin-2-yl)-5H-pyrrolo[3,2-d]pyrimidin-6-yl]pyridin-2-yl}butanamide], for which the IC50 is 4.66 nM in assay [1] and greater than 20000 nM in assay [2] (setting [3]).

With `O=C(Nc1cc(-c2[nH]c3c(OCC(F)F)cc(F)nc3c2-c2ccccn2)ccn1)C(CC(F)F)c1ccc(F)cc1` (racemic) [Example 28, (2RS)—N-{4-[7-(2,2-difluoroethoxy)-5-fluoro-3-(pyridin-2-yl)-1H-pyrrolo[3,2-b]pyridin-2-yl]pyridin-2-yl}-4,4-difluoro-2-(4-fluorophenyl)butanamide], the IC50 in assay [1] was 3.95 nM; in assay [2] (setting [3]) it was greater than 20000 nM.

Consider `O=C(Nc1cc(-c2[nH]c3cccnc3c2-c2ccccc2)ccn1)C(CC(F)F)c1ccc(F)cc1` (single isomer, unassigned; (-)) [Example 23, (−)-4,4-difluoro-2-(4-fluorophenyl)-N-[4-(3-phenyl-1H-pyrrolo[3,2-b]pyridin-2-yl)pyridin-2-yl]butanamide], for which the IC50 was 33.6 nM in assay [1] and greater than 20000 nM in assay [2] (setting [3]).

With `O=C(Nc1cc(-c2[nH]c3cccnc3c2-c2cccc(F)n2)ccn1)C(CC(F)F)c1ccc(F)cc1` (single isomer, unassigned; (+)) [Example 27, (+)-4,4-difluoro-2-(4-fluorophenyl)-N-{4-[3-(6-fluoropyridin-2-yl)-1H-pyrrolo[3,2-b]pyridin-2-yl]pyridin-2-yl}butanamide], the IC50 in assay [1] is 1.55 nM; in assay [2] (setting [4]), greater than 20000 nM.

As to `O=C(Nc1cc(-c2[nH]c3cccnc3c2-c2ccccc2)ccn1)C(CC(F)F)c1ccc(F)cc1` (single isomer, unassigned; (+)) [Example 24, (+)-4,4-difluoro-2-(4-fluorophenyl)-N-[4-(3-phenyl-1H-pyrrolo[3,2-b]pyridin-2-yl)pyridin-2-yl]butanamide], the IC50 is 1.62 nM in assay [1] and greater than 20000 nM in assay [2] (setting [4]).

For the compound `Cc1ccc2[nH]c(-c3ccnc(NC(=O)C(CC(F)F)c4ccc(F)cc4)c3)c(-c3ccccn3)c2n1` (racemic) [Example 4, 4,4-difluoro-2-(4-fluorophenyl)-N-{4-[5-methyl-3-(pyridin-2-yl)-1H-pyrrolo[3,2-b]pyridin-2-yl]pyridin-2-yl}butanamide], the results for the IC50 in assay [1] and in assay [2] (setting [3]) were 6.49 nM and greater than 20000 nM, respectively.

On to `O=C(Nc1cc(-c2[nH]c3c(C4CCCO4)cc(F)nc3c2-c2ccccn2)ccn1)C(CC(F)F)c1ccc(F)cc1` (single isomer, unassigned) [Example 118, (2R or S)-4,4-difluoro-N-(4-{5-fluoro-7-[(2R or S)-oxolan-2-yl]-3-(pyridin-2-yl)-1H-pyrrolo[3,2-b]pyridin-2-yl}pyridin-2-yl)-2-(4-fluorophenyl)butanamide], for which the IC50 is 66.9 nM in assay [1] and greater than 20000 nM in assay [2] (setting [3]).
